Measured values published in US20160108049A1 (TAKEDA Gmbh, priority 2011, published 2016).

Tests used:
[1] = target: T1, PDE4B1 (Homo sapiens, UniProt Q07343); test: Inhibition of PDE4 activity (PDE4B1, SPA assay); type: biochemical; conditions: recombinant PDE4B1, 0.5 μM cAMP; read-out: PDE4B1 Inhibitory values measured as -logIC50 (converted)
T1 construct: made in house; host or cells: SF21 insect cells (baculovirus; virus made in SF9 cells, pCR-Bac vector)
In short: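 Baculovirus-expressed enzyme from SF21 cell 1000×g supernatant; substrate 0.5 μM [3H]cAMP in 20 mM Tris pH 7.4, 5 mM Mg2+, 0.1 mg/ml BSA, 10-20% conversion. 5 min preincubation at 37 °C, 15 min reaction, stopped by SPA beads with IBMX; IC50 by non-linear regression.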

[2] = target: T2, human PDE5 (Homo sapiens, UniProt O76074); test: Inhibition of PDE5 activity (platelet lysate, SPA assay); type: biochemical; conditions: 0.5 μM cGMP, read-out: PDE5 Inhibitory values measured as -logIC50 (converted)
T2 construct: from tissue; host or cells: human platelets from fresh donor blood (platelet lysate)
In short: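 Human platelet lysate (10,000 g supernatant) served as PDE5 source, with 1 μM motapizone and 10 nM PDE2 inhibitor added, in Tris pH 7.4, 5 mM Mg2+, BSA. Substrate 0.5 μM [3H]cGMP, 10–20% conversion; 5 min preincubation then 15 min at 37 °C, stopped by SPA beads with IBMX. IC50 by non-linear regression.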

T1 sequence (Q07343 whole entry): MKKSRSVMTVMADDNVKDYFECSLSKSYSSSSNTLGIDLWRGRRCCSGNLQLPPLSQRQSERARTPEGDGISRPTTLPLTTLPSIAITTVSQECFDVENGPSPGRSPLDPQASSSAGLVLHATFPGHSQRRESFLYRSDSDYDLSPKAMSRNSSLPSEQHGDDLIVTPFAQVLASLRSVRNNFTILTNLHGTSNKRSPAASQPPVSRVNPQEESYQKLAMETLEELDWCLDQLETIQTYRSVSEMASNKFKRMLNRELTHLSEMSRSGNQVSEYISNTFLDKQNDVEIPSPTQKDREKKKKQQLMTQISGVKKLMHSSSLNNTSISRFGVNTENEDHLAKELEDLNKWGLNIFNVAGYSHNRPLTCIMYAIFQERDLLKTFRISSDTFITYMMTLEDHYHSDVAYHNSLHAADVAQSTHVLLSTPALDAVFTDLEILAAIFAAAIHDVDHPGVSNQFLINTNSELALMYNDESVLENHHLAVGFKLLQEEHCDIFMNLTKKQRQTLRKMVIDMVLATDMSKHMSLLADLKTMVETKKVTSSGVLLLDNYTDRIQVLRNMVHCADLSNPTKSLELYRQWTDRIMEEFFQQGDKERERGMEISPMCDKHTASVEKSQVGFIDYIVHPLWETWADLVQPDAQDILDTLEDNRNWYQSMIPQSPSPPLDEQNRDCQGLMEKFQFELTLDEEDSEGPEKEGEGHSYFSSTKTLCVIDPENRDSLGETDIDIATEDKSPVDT

SMILES | IC50 [1] [nM] | IC50 [2] [nM]
COc1ccc(C2=NN(C3CCN(C(=O)[C@@H](Cc4ccc(C(F)(F)F)cc4)NC(=O)c4c[nH]c5c(-c6c(OCC7CC7)ccc7c6OCO7)ncnc45)CC3)C(=O)[C@@H]3CCCC[C@H]23)cc1OC [Example 49, 4-[5-(cyclopropylmethoxy)-1,3-benzodioxol-4-yl]-N-{(2R)-1-{4-[(4aS,8aR)-4-(3,4-dimethoxyphenyl)-1-oxo-4a,5,6,7,8,8a-hexahydrophthalazin-2(1H)-yl]piperidin-1-yl}-1-oxo-3-[4-(trifluoromethyl)phenyl]propan-2-yl}-5H-pyrrolo[3,2-d]pyrimidine-7-carboxamide] | 1 to 10 | 1 to 10
COc1ccc(C2=NN(C3CCN(C(=O)[C@H](NC(=O)c4c[nH]c5c(-c6c(OCC7CC7)ccc7c6OCO7)ncnc45)[C@H](C)c4ccccc4)CC3)C(=O)[C@@H]3CCCC[C@H]23)cc1OC [Example 50, 4-[5-(cyclopropylmethoxy)-1,3-benzodioxol-4-yl]-N-[(2R,3R)-1-{4-[(4aS,8aR)-4-(3,4-dimethoxyphenyl)-1-oxo-4a,5,6,7,8,8a-hexahydrophthalazin-2(1H)-yl]piperidin-1-yl}-1-oxo-3-phenylbutan-2-yl]-5H-pyrrolo[3,2-d]pyrimidine-7-carboxamide] | < 1 | 1 to 10
COc1ccc(C2=NN(C3CCN(C(=O)[C@H](NC(=O)c4c(C)[nH]c5c(-c6c(OCC7CC7)ccc7c6OCO7)ncnc45)[C@H](C)c4ccccc4)CC3)C(=O)[C@@H]3CCCC[C@H]23)cc1OC [Example 51, 4-[5-(cyclopropylmethoxy)-1,3-benzodioxol-4-yl]-N-[(2R,3R)-1-{4-[(4aS,8aR)-4-(3,4-dimethoxyphenyl)-1-oxo-4a,5,6,7,8,8a-hexahydrophthalazin-2(1H)-yl]piperidin-1-yl}-1-oxo-3-phenylbutan-2-yl]-6-methyl-5H-pyrrolo[3,2-d]pyrimidine-7-carboxamide] | < 1 | 1 to 10
COc1ccc(C2=NN(C3CCN(C(=O)[C@@H](Cc4ccc(O)cc4)NC(=O)c4c[nH]c5c(-c6c(OCC7CC7)ccc7c6OCO7)ncnc45)CC3)C(=O)[C@@H]3CCCC[C@H]23)cc1OC [Example 52, 4-[5-(cyclopropylmethoxy)-1,3-benzodioxol-4-yl]-N-[(2R)-1-{4-[(4aS,8aR)-4-(3,4-dimethoxyphenyl)-1-oxo-4a,5,6,7,8,8a-hexahydrophthalazin-2(1H)-yl]piperidin-1-yl}-3-(4-hydroxyphenyl)-1-oxopropan-2-yl]-5H-pyrrolo[3,2-d]pyrimidine-7-carboxamide] | < 1 | < 1
COc1ccc(C2=NN(C3CCN(C(=O)[C@H](Cc4ccc(O)cc4)NC(=O)c4c[nH]c5c(-c6c(OCC7CC7)ccc7c6OCO7)ncnc45)CC3)C(=O)[C@@H]3CCCC[C@H]23)cc1OC [Example 53, 4-[5-(cyclopropylmethoxy)-1,3-benzodioxol-4-yl]-N-[(2S)-1-{4-[(4aS,8aR)-4-(3,4-dimethoxyphenyl)-1-oxo-4a,5,6,7,8,8a-hexahydrophthalazin-2(1H)-yl]piperidin-1-yl}-3-(4-hydroxyphenyl)-1-oxopropan-2-yl]-5H-pyrrolo[3,2-d]pyrimidine-7-carboxamide] | < 1 | 1 to 10
COc1ccc(C2=NN(C3CCN(C(=O)[C@@H](Cc4ccccc4)NC(=O)c4c[nH]c5c(-c6c(OCC7CC7)ccc7c6OCO7)ncnc45)CC3)C(=O)[C@@H]3CCC[C@H]23)cc1OC [Example 55, 4-[5-(cyclopropylmethoxy)-1,3-benzodioxol-4-yl]-N-[(2R)-1-{4-[(4aS,7aR)-4-(3,4-dimethoxyphenyl)-1-oxo-1,4a,5,6,7,7a-hexahydro-2H-cyclopenta[d]pyridazin-2-yl]piperidin-1-yl}-1-oxo-3-phenylpropan-2-yl]-5H-pyrrolo[3,2-d]pyrimidine-7-carboxamide] | 1 to 10 | 1 to 10
COc1ccc(C2=NN(C3CCN(C(=O)CNC(=O)c4c[nH]c5c(-c6c(OCC7CC7)ccc7c6OCO7)ncnc45)CC3)C(=O)[C@@H]3CCCC[C@H]23)cc1OC [Example 59, 4-[5-(cyclopropylmethoxy)-1,3-benzodioxol-4-yl]-N-(2-{4-[(4aS,8aR)-4-(3,4-dimethoxyphenyl)-1-oxo-4a,5,6,7,8,8a-hexahydrophthalazin-2(1H)-yl]piperidin-1-yl}-2-oxoethyl)-5H-pyrrolo[3,2-d]pyrimidine-7-carboxamide] | < 1 | 1 to 10
COc1ccc(C2=NN(C3CCN(C(=O)[C@H](CO)NC(=O)c4c[nH]c5c(-c6c(OCC7CC7)ccc7c6OCO7)ncnc45)CC3)C(=O)[C@@H]3CCCC[C@H]23)cc1OC [Example 60, 4-[5-(cyclopropylmethoxy)-1,3-benzodioxol-4-yl]-N-[(2S)-1-{4-[(4aS,8aR)-4-(3,4-dimethoxyphenyl)-1-oxo-4a,5,6,7,8,8a-hexahydrophthalazin-2(1H)-yl]piperidin-1-yl}-3-hydroxy-1-oxopropan-2-yl]-5H-pyrrolo[3,2-d]pyrimidine-7-carboxamide] | < 1 | 1 to 10
COc1ccc(C2=NN(C3CCN(C(=O)[C@H](C)NC(=O)c4c[nH]c5c(-c6c(OCC7CC7)ccc7c6OCO7)ncnc45)CC3)C(=O)[C@@H]3CCCC[C@H]23)cc1OC [Example 61, 4-[5-(cyclopropylmethoxy)-1,3-benzodioxol-4-yl]-N-[(2S)-1-{4-[(4aS,8aR)-4-(3,4-dimethoxyphenyl)-1-oxo-4a,5,6,7,8,8a-hexahydrophthalazin-2(1H)-yl]piperidin-1-yl}-1-oxopropan-2-yl]-5H-pyrrolo[3,2-d]pyrimidine-7-carboxamide] | < 1 | 1 to 10
COc1ccc(C2=NN(C3CCN(C(=O)[C@@H](C)NC(=O)c4c[nH]c5c(-c6c(OCC7CC7)ccc7c6OCO7)ncnc45)CC3)C(=O)[C@@H]3CCCC[C@H]23)cc1OC [Example 62, 4-[5-(cyclopropylmethoxy)-1,3-benzodioxol-4-yl]-N-[(2R)-1-{4-[(4aS,8aR)-4-(3,4-dimethoxyphenyl)-1-oxo-4a,5,6,7,8,8a-hexahydrophthalazin-2(1H)-yl]piperidin-1-yl}-1-oxopropan-2-yl]-5H-pyrrolo[3,2-d]pyrimidine-7-carboxamide] | < 1 | 1 to 10
COc1ccc(C2=NN(C3CCN(C(=O)[C@@H](NC(=O)c4c[nH]c5c(-c6c(OCC7CC7)ccc7c6OCO7)ncnc45)[C@@H](C)O)CC3)C(=O)[C@@H]3CCCC[C@H]23)cc1OC [Example 63, 4-[5-(cyclopropylmethoxy)-1,3-benzodioxol-4-yl]-N-[(2S,3R)-1-{4-[(4aS,8aR)-4-(3,4-dimethoxyphenyl)-1-oxo-4a,5,6,7,8,8a-hexahydrophthalazin-2(1H)-yl]piperidin-1-yl}-3-hydroxy-1-oxobutan-2-yl]-5H-pyrrolo[3,2-d]pyrimidine-7-carboxamide] | < 1 | < 1
CC[C@H](NC(=O)c1c(C)[nH]c2c(-c3c(OCC4CC4)ccc4c3OCO4)ncnc12)C(=O)N1CCC(N2N=C(c3ccc(OC)c(OC)c3)[C@H]3CCCC[C@H]3C2=O)CC1 [Example 64, 4-[5-(cyclopropylmethoxy)-1,3-benzodioxol-4-yl]-N-[(2S)-1-{4-[(4aS,8aR)-4-(3,4-dimethoxyphenyl)-1-oxo-4a,5,6,7,8,8a-hexahydrophthalazin-2(1H)-yl]piperidin-1-yl}-1-oxobutan-2-yl]-6-methyl-5H-pyrrolo[3,2-d]pyrimidine-7-carboxamide] | < 1 | < 1
COc1ccc(C2=NN(C3CCN(C(=O)[C@@H](CCc4ccccc4)NC(=O)c4c[nH]c5c(-c6c(OCC7CC7)ccc7c6OCO7)ncnc45)CC3)C(=O)[C@@H]3CCCC[C@H]23)cc1OC [Example 65, 4-[5-(cyclopropylmethoxy)-1,3-benzodioxol-4-yl]-N-[(2R)-1-{4-[(4aS,8aR)-4-(3,4-dimethoxyphenyl)-1-oxo-4a,5,6,7,8,8a-hexahydrophthalazin-2(1H)-yl]piperidin-1-yl}-1-oxo-4-phenylbutan-2-yl]-5H-pyrrolo[3,2-d]pyrimidine-7-carboxamide] | < 1 | < 1
COc1ccc(C2=NN(C3CCN(C(=O)[C@@H](Cc4ccccc4)NC(=O)c4c(C)[nH]c5c(-c6c(OCC7CC7)ccc7c6OCO7)ncnc45)CC3)C(=O)C(C)(C)C2)cc1OC [Example 66, 4-[5-(cyclopropylmethoxy)-1,3-benzodioxol-4-yl]-N-[(2R)-1-{4-[3-(3,4-dimethoxyphenyl)-5,5-dimethyl-6-oxo-5,6-dihydropyridazin-1(4H)-yl]piperidin-1-yl}-1-oxo-3-phenylpropan-2-yl]-6-methyl-5H-pyrrolo[3,2-d]pyrimidine-7-carboxamide] | < 1 | < 1
COc1ccc(C2=NN(C3CCN(C(=O)[C@@H](Cc4ccccc4)NC(=O)c4c[nH]c5c(-c6c(OCC7CC7)ccc7c6OCO7)ncnc45)CC3)C(=O)C(C)(C)C2)cc1OC [Example 67, 4-[5-(cyclopropylmethoxy)-1,3-benzodioxol-4-yl]-N-[(2R)-1-{4-[3-(3,4-dimethoxyphenyl)-5,5-dimethyl-6-oxo-5,6-dihydropyridazin-1(4H)-yl]piperidin-1-yl}-1-oxo-3-phenylpropan-2-yl]-5H-pyrrolo[3,2-d]pyrimidine-7-carboxamide] | < 1 | 1 to 10
